One test concerns the target T1, PLU1 (KDM5B) (Homo sapiens, UniProt Q9UGL1).
T1 construct: (1-752); host or cells: U2OS
T1 sequence (Q9UGL1 1-752): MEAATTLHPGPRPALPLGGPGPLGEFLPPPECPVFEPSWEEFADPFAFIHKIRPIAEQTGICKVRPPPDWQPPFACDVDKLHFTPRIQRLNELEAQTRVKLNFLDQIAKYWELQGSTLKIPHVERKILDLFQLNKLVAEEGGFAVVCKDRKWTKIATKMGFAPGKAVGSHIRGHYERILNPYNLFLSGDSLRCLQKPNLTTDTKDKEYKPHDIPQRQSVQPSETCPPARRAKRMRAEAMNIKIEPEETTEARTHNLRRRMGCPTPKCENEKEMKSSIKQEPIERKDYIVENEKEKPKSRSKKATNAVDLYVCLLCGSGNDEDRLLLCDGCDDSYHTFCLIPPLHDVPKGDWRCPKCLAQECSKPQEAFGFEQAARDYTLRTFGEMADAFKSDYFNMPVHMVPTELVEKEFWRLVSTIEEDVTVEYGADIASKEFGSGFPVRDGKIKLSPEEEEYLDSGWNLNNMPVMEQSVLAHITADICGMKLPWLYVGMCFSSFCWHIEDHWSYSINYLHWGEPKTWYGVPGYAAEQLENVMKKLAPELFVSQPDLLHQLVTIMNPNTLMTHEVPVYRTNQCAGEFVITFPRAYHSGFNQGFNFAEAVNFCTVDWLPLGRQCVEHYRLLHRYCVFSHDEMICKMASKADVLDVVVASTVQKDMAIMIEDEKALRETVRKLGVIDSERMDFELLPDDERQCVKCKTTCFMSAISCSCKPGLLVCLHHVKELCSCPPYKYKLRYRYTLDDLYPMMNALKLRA
Kind of test: Immunofluorescence assay in U2OS cells transfected with pCMVHA PLU1 (H3K4me2 mark). Format: cell-based. As to conditions: 20 hours. The method, then: (§1) U2OS cells were seeded 24 hours before transfection. Transfection was performed with Fugene HD transfection reagent as recommended by the manufacturer. 6 hours after transfection, the cells were harvested and seeded into multi well plates into media containing compound. The media used was DMEM containing 5% FBS and pen/strep. 20 hours after incubation of cells with compounds, the cells were washed once in PBS, harvested by fixation with formaldehyde 4% aqueous solution, and washed 2 times in PBS. Subsequently, the cells were permeabilized in PBS with 0.2% Triton X-100 for 10 min at room temperature. Blocking was performed in PBS with 0.2% Triton X-100 and 5% FBS for 45 min at room temperature. The cells were incubated with primary antibodies diluted 1 μg/ml in blocking solution over night at 4° C. The primary antibodies used in the assays were HA.11 (Covance, MMS-101P) and the antibody detecting the mark specified in the Table 6 below. After incubation with primary antibodies, the cells were washed 3 times with PBS, incubated with secondary antibodies diluted 1:1000 (Alexa fluor 594 goat anti rabbit IgG, Invitrogen, A11012; Alexa flour 488 donkey anti mouse IgG, Invitrogen, A21202) and Hoechst, 20 μg/ml (Sigma, 33342) in blocking solution, and washed again 3 times with PBS. Finally, PBS was added and high throughput imaging and analysis were performed by an IN Cell Analyzer 1000 (GE Healthcare). The robot software analyzed individual cells and divided these into HA^+ (transfected cells) and HA^− (non-transfected cells). The IC50 values in Table 7 below were based on an average measure of the staining of the mark specified in the Table 6 below in the transfected cells.

The target in a further test is T2, GASC1 (KDM4C) (Homo sapiens, UniProt Q9H3R0).
T2 construct: Full length; host or cells: U2OS
T2 sequence (Q9H3R0 1-1056): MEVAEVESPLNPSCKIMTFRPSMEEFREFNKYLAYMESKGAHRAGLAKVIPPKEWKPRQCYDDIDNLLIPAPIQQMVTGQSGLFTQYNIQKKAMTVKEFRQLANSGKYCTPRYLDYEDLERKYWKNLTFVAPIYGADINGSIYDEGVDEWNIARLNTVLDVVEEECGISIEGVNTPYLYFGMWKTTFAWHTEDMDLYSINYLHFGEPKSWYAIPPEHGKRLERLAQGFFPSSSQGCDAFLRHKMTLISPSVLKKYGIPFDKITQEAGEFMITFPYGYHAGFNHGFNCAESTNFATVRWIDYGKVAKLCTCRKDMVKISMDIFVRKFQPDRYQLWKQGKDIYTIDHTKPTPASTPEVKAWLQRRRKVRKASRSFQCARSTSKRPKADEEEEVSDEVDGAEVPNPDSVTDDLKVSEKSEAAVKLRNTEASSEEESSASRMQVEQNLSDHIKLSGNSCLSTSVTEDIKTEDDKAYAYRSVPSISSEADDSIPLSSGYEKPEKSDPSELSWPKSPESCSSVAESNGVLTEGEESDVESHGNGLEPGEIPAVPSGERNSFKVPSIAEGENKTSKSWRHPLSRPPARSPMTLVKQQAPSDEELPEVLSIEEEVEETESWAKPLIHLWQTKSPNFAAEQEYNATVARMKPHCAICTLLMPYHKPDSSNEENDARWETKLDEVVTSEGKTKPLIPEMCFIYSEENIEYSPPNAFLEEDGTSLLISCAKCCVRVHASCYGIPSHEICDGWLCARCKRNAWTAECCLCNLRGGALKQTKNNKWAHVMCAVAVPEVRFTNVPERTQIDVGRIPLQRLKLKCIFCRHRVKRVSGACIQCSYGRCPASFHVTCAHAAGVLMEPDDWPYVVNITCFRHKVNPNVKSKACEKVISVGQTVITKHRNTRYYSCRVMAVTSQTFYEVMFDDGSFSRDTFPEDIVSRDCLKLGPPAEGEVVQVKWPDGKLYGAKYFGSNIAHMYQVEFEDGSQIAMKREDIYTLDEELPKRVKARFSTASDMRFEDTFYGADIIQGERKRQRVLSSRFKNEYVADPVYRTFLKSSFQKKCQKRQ
Kind of test: Immunofluorescence assay in U2OS cells transfected with pCMVHA JMJD2C (H3K9me3 mark). In kind it is cell-based. As to conditions: 20 hours. The method, then:
as §1

pIC50: −log10 of the molar value. Bounds are passed on as bounds.

What is called pIC50 is −log10 of the IC50, conventionally taken in molar units. A high value points to a low IC50. `COCCN1CCN(C(=O)CNCc2cc(C(=O)O)ccn2)CC1` [drawing 308, 2-[({2-[4-(2-methoxyethyl)piperazin-1-yl]-2-oxoethyl}amino)methyl] pyridine-4-carboxylic acid]: the pIC50 against PLU1 (KDM5B) and at GASC1 (KDM4C) was under 4.30 in each case.

On to `CN(C)CCNCc1cc(C(=O)O)ccn1` [drawing 297, 2-({[2-(dimethylamino)ethyl]amino}methyl)pyridine-4-carboxylic acid], for which the pIC50 on PLU1 (KDM5B) and against GASC1 (KDM4C) was 4.30 to 6.00 in each case.

On to `CN(CCCNCc1cc(C(=O)O)ccn1)Cc1ccccc1F` [drawing 322, 2-{[(3-{[(2-fluorophenyl)methyl](methyl)amino}propyl)amino]methyl}pyridine-4-carboxylic acid], for which the pIC50 against PLU1 (KDM5B) was 4.30 to 6.00; at GASC1 (KDM4C), under 4.30.

Take `CCN(CC)CCCCNCc1cc(C(=O)OCCCN(C)C)ccn1` [drawing 332, 3-(dimethylamino) propyl 2-({[4-(diethylamino)butyl]amino}methyl)pyridine-4-carboxylate]: the pIC50 on PLU1 (KDM5B) and on GASC1 (KDM4C) was 4.30 to 6.00 each time.

On to `O=C(O)c1ccnc(CNCC[C@@H]2CCCN2Cc2ccccc2)c1` [2-[({2-[(2S)-1-benzylpyrrolidin-2-yl]ethyl}amino)methyl] pyridine-4-carboxylic acid], for which the pIC50 is 4.30 to 6.00 against PLU1 (KDM5B) and under 4.30 on GASC1 (KDM4C).

On to `CCN(CC)CCCCNCc1cc(C(=O)Oc2ccc(OC)cc2)ccn1` [drawing 329, 4-methoxyphenyl 2-({[4-(diethylamino)butyl]amino}methyl)pyridine-4-carboxylate], for which the results for the pIC50 against PLU1 (KDM5B) and at GASC1 (KDM4C) were over 6.00 and 4.30 to 6.00, respectively.

Take `O=C(O)c1ccnc(CN[C@@H]2CCN(CCCc3ccccc3)C2)c1` [drawing 315, 2-({[(3R)-1-(3-phenylpropyl)pyrrolidin-3-yl]amino}methyl)pyridine-4-carboxylic acid]: the negative-log IC50 (pIC50) at PLU1 (KDM5B) is 4.30 to 6.00; against GASC1 (KDM4C), under 4.30.

Turning to `O=C(O)c1ccnc(CNCCCNCCCN2CCCC2)c1` [drawing 310, 2-{[(3-{[3-(pyrrolidin-1-yl)propyl]amino}propyl)amino]methyl}pyridine-4-carboxylic acid], the pIC50 against PLU1 (KDM5B) and on GASC1 (KDM4C) was under 4.30 throughout.

`COC(=O)c1ccnc(CNCCCN2CCCC2)c1` [drawing 326, methyl 2-({[3-(pyrrolidin-1-yl)propyl]amino}methyl) pyridine-4-carboxylate]: the pIC50 against PLU1 (KDM5B) and against GASC1 (KDM4C) was 4.30 to 6.00 throughout.

As to `O=C(O)c1ccnc(CNCC2CC2)c1` [drawing 299, 2-{[(cyclopropylmethyl)amino]methyl}pyridine-4-carboxylic acid], the pIC50 at PLU1 (KDM5B) was 4.30 to 6.00; against GASC1 (KDM4C), under 4.30.

`O=C(O)c1ccnc(CNCCCn2ccnc2)c1` [drawing 296, 2-({[3-(1H-imidazol-1-yl)propyl]amino}methyl) pyridine-4-carboxylic acid]: the pIC50 at PLU1 (KDM5B) was 4.30 to 6.00; against GASC1 (KDM4C), under 4.30.

On to `CCN1CCCC1CNC(=O)CNCc1cc(C(=O)O)ccn1` (centres unmarked) [drawing 313, 2-{[({[(1-ethylpyrrolidin-2-yl)methyl]carbamoyl}methyl)amino]methyl}pyridine-4-carboxylic acid], for which the results for the pIC50 at PLU1 (KDM5B) and at GASC1 (KDM4C) were 4.30 to 6.00 and under 4.30, respectively.

On to `CCOC(=O)c1ccccc1OC(=O)c1ccnc(CNCCCCN(CC)CC)c1` [drawing 330, 2-(ethoxycarbonyl) phenyl 2-({[4-(diethylamino)butyl]amino}methyl)pyridine-4-carboxylate], for which the pIC50 is over 6.00 against PLU1 (KDM5B) and 4.30 to 6.00 against GASC1 (KDM4C).

Consider `O=C(CNCc1cc(C(=O)O)ccn1)NC1CCN(CCCc2ccccc2)CC1` [drawing 317, 2-{[({[1-(3-phenylpropyl)piperidin-4-yl]carbamoyl}methyl)amino]methyl}pyridine-4-carboxylic acid], for which the pIC50 against PLU1 (KDM5B) and against GASC1 (KDM4C) was under 4.30 each time.

`O=C(O)c1ccnc(CNCc2ccco2)c1` [drawing 303, 2-{[(furan-2-ylmethyl)amino]methyl}pyridine-4-carboxylic acid] had a pIC50 at GASC1 (KDM4C) of 4.30 to 6.00.

`O=C(CNCc1cc(C(=O)O)ccn1)NC1CCN(Cc2ccc(-c3ccccc3)o2)CC1` [drawing 319, 2-({[({1-[(5-phenylfuran-2-yl)methyl]piperidin-4-yl}carbamoyl)methyl]amino}methyl)pyridine-4-carboxylic acid]: the pIC50 on PLU1 (KDM5B) and at GASC1 (KDM4C) was under 4.30 throughout.

`CCN(CC)CCCCNCc1cc(C(=O)OCCN(C)C)ccn1` [drawing 331, 2-(dimethylamino) ethyl 2-({[4-(diethylamino)butyl]amino}methyl)pyridine-4-carboxylate]: the pIC50 against PLU1 (KDM5B) and at GASC1 (KDM4C) was 4.30 to 6.00 each time.

In the case of `CN(C)CCCCNCc1cc(C(=O)O)ccn1` [2-({[4-(dimethylamino)butyl]amino}methyl)pyridine-4-carboxylic acid], the pIC50 against PLU1 (KDM5B) is 4.30 to 6.00; on GASC1 (KDM4C) it was under 4.30.

Take `CN(Cc1ccnn1C)C(=O)CNCc1cc(C(=O)O)ccn1` [drawing 314, 2-{[({methyl[(1-methyl-1H-pyrazol-5-yl)methyl]carbamoyl}methyl)amino]methyl}pyridine-4-carboxylic acid]: the pIC50 on PLU1 (KDM5B) and against GASC1 (KDM4C) was under 4.30 throughout.

As to `O=C(CNCc1cc(C(=O)O)ccn1)NC1CCN(Cc2ccco2)CC1` [drawing 318, 2-{[({[1-(furan-2-ylmethyl)piperidin-4-yl]carbamoyl}methyl)amino]methyl}pyridine-4-carboxylic acid], the pIC50 at PLU1 (KDM5B) and on GASC1 (KDM4C) was under 4.30 each time.

On to `CCCCN(C)C(=O)CNCc1cc(C(=O)O)ccn1` [drawing 306, 2-[({[butyl(methyl)carbamoyl]methyl}amino)methyl] pyridine-4-carboxylic acid], for which the pIC50 against PLU1 (KDM5B) is under 4.30; against GASC1 (KDM4C), 4.30 to 6.00.

With `O=C(O)c1ccnc(CNCC(=O)N2CCCC2)c1` [drawing 305, 2-({[2-oxo-2-(pyrrolidin-1-yl)ethyl]amino}methyl) pyridine-4-carboxylic acid], the pIC50 was under 4.30 at PLU1 (KDM5B) and 4.30 to 6.00 against GASC1 (KDM4C).

On to `CN(CCC(N)=O)C(=O)CNCc1cc(C(=O)O)ccn1` [drawing 311, 2-[({[(2-carbamoylethyl)(methyl)carbamoyl]methyl}amino)methyl]pyridine-4-carboxylic acid], for which the pIC50 at GASC1 (KDM4C) is under 4.30.

The values above are taken from patent publication US10221139B2, “Inhibitors of histone demethylases” (Gilead Sciences, Inc., priority 2012, dated 2019).
